The source of these data is US6562849B1, “Amine derivative compounds” (Sankyo Company, Limited, priority 1999, dated 2003).

The structures appear in SMILES notation. Where a name gives a salt, the structure may show the parent alone.

The test system of the experiment is KK mice (age 4-5 months) with diabetes. Briefly: Blood sugar lowering effect in KK mice with diabetes. It counts as in vivo. To be noted: Mus musculus, po, 72 h, powder diet containing 0.01% of the test compound for 3 days, plasma glucose vs control group, groups of 4 mice, read-out: Blood sugar decrease rate (%). The text has this:
[Test Example] Blood Sugar Lowering Effect
Blood samples were collected from the caudal vein of KK mice (age 4-5 months) with diabetes followed by measurement of their blood sugar levels. Next, after assigning the mice to groups (of 4 mice each) so that the mean blood sugar levels of each group were the same, mouse laboratory powder diet (F-1, Funabashi Farms), prepared so as to contain 0.01% of the test compound, was given to the mice for 3 days. The groups of mice that were given test compound were designated as the drug dose groups. It should be noted that a group that was given laboratory diet not containing the test compound was designated as the control group. Blood samples were collected from the caudal vein of the mice 3 days later and the glucose concentration of the plasma obtained by centrifugal separation was measured with a glucose analyzer (Glucoloader, A & T Corp.). The mean decrease of blood sugar rate (%) was determined according to the following equation.
Blood sugar decrease rate (%)=(mean blood sugar value of control group−mean blood sugar value […] of drug dose group)×100/(blood sugar value of control group)
For `Cn1c(COc2ccc(CC3SC(=O)NC3=O)cc2)nc2ccc(Oc3ccc4cccc(NC(=S)NCc5ccccc5)c4c3)cc21` (stereo not shown) [Example 44, 1-Benzyl-3-(7-[2-[4-(2,4-dioxothiazolidin-5-ylmethyl)phenoxymethyl]-1-methyl-1H-benzimidazol-6-yloxy]naphthalen-1-yl)thiourea], the inhibition in vivo at 0.01 % in diet came out at 47.2%.

Take `Cn1c(COc2ccc(CC3SC(=O)NC3=O)cc2)nc2ccc(Oc3ccc(NS(C)(=O)=O)cc3)cc21` (stereo not shown) [Example 18, N-(4-[2-[4-(2,4-Dioxothiazolidin-5-ylmethyl)phenoxymethyl]-1-methyl-1H-benzimidazol-6-yloxy]phenyl)methanesulfonamide]: the inhibition in vivo at 0.01 % in diet was 61%.

For `Cn1c(COc2ccc(CC3SC(=O)NC3=O)cc2)nc2ccc(Oc3ccc(NC(=O)c4ccc(F)cc4F)cc3)cc21` (stereo not shown) [Example 57, 2,4-Difluoro-N-[4-[2-[4-(2,4-dioxothiazolidin-5-ylmethyl)phenoxymethyl]-1-methyl-1H-benzimidazol-6-yloxy]phenyl]benzamide], the inhibition in vivo at 0.01 % in diet came out at 57.3%.

As for `Cn1c(COc2ccc(CC3SC(=O)NC3=O)cc2)nc2ccc(Oc3ccc(CCNC(=O)Nc4ccc(C(F)(F)F)cc4)cc3)cc21` (stereo not shown) [Example 34, 1-[2-(4-[2-[4-(2,4-Dioxothiazolidin-5-ylmethyl)phenoxymethyl]-1-methyl-1H-benzimidazol-6-yloxy]phenyl)ethyl]-3-[4-(trifluoromethyl)phenyl]urea hydrochloride], the inhibition in vivo at 0.01 % in diet turned out to be 32.8%.

For the compound `Cn1c(COc2ccc(CC3SC(=O)NC3=O)cc2)nc2ccc(Oc3ccc4cccc(NC(=O)NCc5ccccc5)c4c3)cc21` (stereo not shown) [Example 45, 1-Benzyl-3-(7-[2-[4-(2,4-dioxothiazolidin-5-ylmethyl)phenoxymethyl]-1-methyl-1H-benzimidazol-6-yloxy]naphthalen-1-yl)urea], the inhibition in vivo at 0.01 % in diet is 54.1%.

Turning to `Cn1c(COc2ccc(CC3SC(=O)NC3=O)cc2)nc2ccc(Oc3ccc(NC(=O)Nc4ccc(F)cc4F)cc3)cc21` (stereo not shown) [Example 5, 1-(2,4-Difluorophenyl)-3-(4-[2-[4-(2,4-dioxothiazolidin-5-ylmethyl)phenoxymethyl]-1-methyl-1H-benzimidazol-6-yloxy]phenyl)urea], the inhibition in vivo at 0.01 % in diet was determined as 36.2%.

`Cn1c(COc2ccc(CC3SC(=O)NC3=O)cc2)nc2ccc(Oc3ccc(NC(=O)NC45CC6CC(CC(C6)C4)C5)cc3)cc21` (stereo not shown) [Example 14, 1-(Adamant-1-yl)-3-(4-[2-[4-(2,4-dioxothiazolidin-5-ylmethyl)phenoxymethyl]-1-methyl-1H-benzimidazol-6-yloxy]phenyl)urea]: the inhibition in vivo at 0.01 % in diet is 63.2%.

As to `CCNC(=O)Nc1ccc(Oc2ccc3nc(COc4ccc(CC5SC(=O)NC5=O)cc4)n(C)c3c2)cc1` (stereo not shown) [Example 12, 1-(4-[2-[4-(2,4-Dioxothiazolidin-5-ylmethyl)phenoxymethyl]-1-methyl-1H-benzimidazol-6-yloxy]phenyl)-3-ethylurea], the inhibition in vivo at 0.01 % in diet stood at 56.1%.

Consider `CC(=O)Nc1ccc(Oc2ccc3nc(COc4ccc(CC5SC(=O)NC5=O)cc4)n(C)c3c2)cc1` (stereo not shown) [Example 52, N-[4-[2-[4-(2,4-Dioxothiazolidin-5-ylmethyl)phenoxymethyl]-1-methyl-1H-benzimidazol-6-yloxy]phenyl]acetamide], for which the inhibition in vivo at 0.01 % in diet stood at 58.5%.

As for `Cn1c(COc2ccc(CC3SC(=O)NC3=O)cc2)nc2ccc(Oc3ccc(CCNC(=O)NC45CC6CC(CC(C6)C4)C5)cc3)cc21` (stereo not shown) [Example 33, 1-(Adamant-1-yl)-3-[2-(4-[2-[4-(2,4-dioxothiazolidin-5-ylmethyl)phenoxymethyl]-1-methyl-1H-benzimidazol-6-yloxy]phenyl)ethyl]urea dihydrochloride], the inhibition in vivo at 0.01 % in diet came to 30.4%.

Regarding `Cn1c(COc2ccc(CC3SC(=O)NC3=O)cc2)nc2ccc(Oc3ccc(CCNC(=O)Nc4ccc(F)cc4F)cc3)cc21` (stereo not shown) [Example 31, 1-(2,4-Difluorophenyl)-3-[2-(4-[2-[4-(2,4-dioxothiazolidin-5-ylmethyl)phenoxymethyl]-1-methyl-1H-benzimidazol-6-yloxy]phenyl)ethyl]urea], the inhibition in vivo at 0.01 % in diet worked out at 50.5%.

Consider `CCCCCCN(C(C)=O)c1ccc(Oc2ccc3nc(COc4ccc(CC5SC(=O)NC5=O)cc4)n(C)c3c2)cc1` (stereo not shown) [Example 61, N-[4-[2-[4-(2,4-Dioxothiazolidin-5-ylmethyl)phenoxymethyl]-1-methyl-1H-benzimidazol-6-yloxy]phenyl]-N-n-hexylacetamide hydrochloride], for which the inhibition in vivo at 0.01 % in diet is 54.2%.

For `Cn1c(COc2ccc(CC3SC(=O)NC3=O)cc2)nc2ccc(Oc3ccc(NC(=O)Nc4ccccc4)cc3)cc21` (stereo not shown) [Example 4, 1-(4-[2-[4-(2,4-Dioxothiazolidin-5-ylmethyl)phenoxymethyl]-1-methyl-1H-benzimidazol-6-yloxy]phenyl)-3-phenylurea], the inhibition in vivo at 0.01 % in diet turned out to be 48.6%.

As to `Cn1c(COc2ccc(CC3SC(=O)NC3=O)cc2)nc2ccc(Oc3ccc(CCNC(=O)Cc4cccc(Cl)c4)cc3)cc21` (stereo not shown) [Example 64, 2-(3-Chlorophenyl)-N-[2-[4-[2-[4-(2,4-dioxothiazolidin-5-ylmethyl)phenoxymethyl]-1-methyl-1H-benzimidazol-6-yloxy]phenyl]ethyl]acetamide hydrochloride], the inhibition in vivo at 0.01 % in diet turned out to be 43.5%.

In the case of `CCCCCCN(C(=O)Nc1ccc(F)cc1)c1ccc(Oc2ccc3nc(COc4ccc(CC5SC(=O)NC5=O)cc4)n(C)c3c2)cc1` (stereo not shown) [Example 16, 1-(4-[2-[4-(2,4-Dioxothiazolidin-5-ylmethyl)phenoxymethyl]-1-methyl-1H-benzimidazol-6-yloxy]phenyl)-1-n-hexyl-3-(4-fluorophenyl)urea], the inhibition in vivo at 0.01 % in diet is 42.9%.

Take `Cc1cc(Oc2ccc3nc(COc4ccc(CC5SC(=O)NC5=O)cc4)n(C)c3c2)cc(C)c1NC(=O)Nc1ccc([N+](=O)[O-])cc1` (stereo not shown) [Example 3, 1-(4-[2-[4-(2,4-Dioxothiazolidin-5-ylmethyl)phenoxymethyl]-1-methyl-1H-benzimidazol-6-yloxy]-2,6-dimethylphenyl)-3-(4-nitrophenyl)urea]: the inhibition in vivo at 0.01 % in diet stood at 49.9%.

Consider `Cn1c(COc2ccc(CC3SC(=O)NC3=O)cc2)nc2ccc(Oc3ccc(NC(=O)c4cccc(Cl)c4)cc3)cc21` (stereo not shown) [Example 54, 3-Chloro-N-[4-[2-[4-(2,4-dioxothiazolidin-5-ylmethyl)phenoxymethyl]-1-methyl-1H-benzimidazol-6-yloxy]phenyl]benzamide], for which the inhibition in vivo at 0.01 % in diet was 43.4%.

Turning to `Cn1c(COc2ccc(CC3SC(=O)NC3=O)cc2)nc2ccc(Oc3ccc(NC(=S)NC4CCCCC4)cc3)cc21` (stereo not shown) [Example 9, 1-(4-[2-[4-(2,4-Dioxothiazolidin-5-ylmethyl)phenoxymethyl]-1-methyl-1H-benzimidazol-6-yloxy]phenyl)-3-(cyclohexyl)thiourea], the inhibition in vivo at 0.01 % in diet is 47.1%.

As to `Cn1c(COc2ccc(CC3SC(=O)NC3=O)cc2)nc2ccc(OCCc3ccc(NC(=O)Nc4ccc(C(F)(F)F)cc4)cc3)cc21` (stereo not shown) [Example 37, 1-[4-(2-[2-[4-(2,4-Dioxothiazolidin-5-ylmethyl)phenoxymethyl]-1-methyl-1H-benzimidazol-6-yloxy]ethyl)phenyl]-3-[4-(trifluoromethyl)phenyl]urea], the inhibition in vivo at 0.01 % in diet turned out to be 35.2%.

Consider `CC(C)c1cccc(C(C)C)c1NC(=O)Nc1cccc2ccc(Oc3ccc4nc(COc5ccc(CC6SC(=O)NC6=O)cc5)n(C)c4c3)cc12` (stereo not shown) [Example 40, 1-(2,6-Diisopropylphenyl)-3-[7-[2-[4-(2,4-dioxothiazolidin-5-ylmethyl)phenoxymethyl]-1-methyl-1H-benzimidazol-6yloxy]naphthalen-1-yl)urea], for which the inhibition in vivo at 0.01 % in diet was 59.3%.

As to `Cn1c(COc2ccc(CC3SC(=O)NC3=O)cc2)nc2ccc(Oc3ccc(NC(=S)NCc4ccccc4)cc3)cc21` (stereo not shown) [Example 11, 1-Benzyl-3-(4-[2-[4-(2,4-dioxothiazolidin-5-ylmethyl)phenoxymethyl]-1-methyl-1H-benzimidazol-6-yloxy]phenyl)thiourea], the inhibition in vivo at 0.01 % in diet was 32.9%.

Take `Cc1cc(Oc2ccc3nc(COc4ccc(CC5SC(=O)NC5=O)cc4)n(C)c3c2)cc(C)c1NC(=S)Nc1ccc(Cl)cc1` (stereo not shown) [Example 2, 1-(4-Chlorophenyl)-3-(4-[2-[4-(2,4-dioxothiazolidin-5-ylmethyl)phenoxymethyl]-1-methyl-1H-benzimidazol-6-yloxy]-2,6-dimethylphenyl)thiourea]: the inhibition in vivo at 0.01 % in diet came out at 48.9%.

Turning to `Cn1c(COc2ccc(CC3SC(=O)NC3=O)cc2)nc2ccc(Oc3ccc(NC(=O)c4ccc5ccccc5c4)cc3)cc21` (stereo not shown) [Example 60, N-[4-[2-[4-(2,4-Dioxothiazolidin-5-ylmethyl)phenoxymethyl]-1-methyl-1H-benzimidazol-6-yloxy]phenyl]naphthalene-2-carboxamide], the inhibition in vivo at 0.01 % in diet was 49.8%.

`Cn1c(COc2ccc(CC3SC(=O)NC3=O)cc2)nc2ccc(Oc3ccc(NC(=O)c4cccnc4)cc3)cc21` (stereo not shown) [Example 56, N-[4-[2-[4-(2,4-Dioxothiazolidin-5-ylmethyl)phenoxymethyl]-1-methyl-1H-benzimidazol-6-yloxy]phenyl]nicotinamide]: the inhibition in vivo at 0.01 % in diet was 63.6%.

Consider `Cn1c(COc2ccc(CC3SC(=O)NC3=O)cc2)nc2ccc(Oc3ccc(NC(=O)C4CCCC4)cc3)cc21` (stereo not shown) [Example 59, N-[4-[2-[4(2,4-dioxothiazolidin-5-ylmethyl)phenoxymethyl]-1-methyl-1H-benzimidazol-6-yloxy]phenyl]cyclopentanecarboxamide], for which the inhibition in vivo at 0.01 % in diet worked out at 56.8%.
